Reference: US10260105B2, “MiR-320e and colorectal cancer” (BAYLOR RESEARCH INSTITUTE, priority 2014, dated 2019)

System: stage II and III CRC
Experiment: Kaplan-Meier DFS and OS estimates in validation cohort patients treated with 5-FU-based adjuvant chemotherapy
Format: in vivo
Conditions: 167 stage II and III CRC patients, 5-FU-based adjuvant chemotherapy for 6 months after tumor resection
Experimental: Validation Patient Cohort. This group included a total of 237 CRC patients (65 stage II, 102 stage III, and 70 stage IV) that were enrolled as part of a clinical trial conducted at the Hospital Clinic, Barcelona, Spain. Patients in this clinical trial were enrolled between 1996 and 2008, and the median follow-up was 4.7 years in patients that were alive at last follow-up, and 3.5 years for all patients. All stage II and III patients were treated with 5-FU-based adjuvant chemotherapy following resection of the primary tumor; all stage IV patients were treated with 5-FU and oxaliplatin (Takahashi, et al., 2012). Normal colonic mucosa (n=20) from healthy individuals was obtained from the Pathology Department of the Hospital Clinic of Barcelona and included as controls. This study was approved by the Institutional Review Board (IRB) of Hospital Clinic, Barcelona, Spain, and a written informed consent was obtained from all patients.
Distributions in the validation cohort are presented as mean (SD) or median (range) depending on level of skewness in the data for continuous variables, or as counts (percentage) for categorical variables. Nonparametric tests (rank sum, Kruskal Wallace) were used to compare expression between groups. Kaplan Meier and Cox regression models were used to assess association with time to event outcomes that included overall survival (OS), defined as time from diagnosis to death, and disease free survival (DFS) defined as time from diagnosis to disease recurrence or death. Due to the scale of miR320e expression, hazard ratios are presented as the change in risk of a person at the 75th percentile relative to a person at the 25th percentile of miR-320e distribution. This can be interpreted as the increase in risk due to a patient moving from the middle of the bottom half of the miR-320e distribution to the middle of the top half of the distribution. Bootstrapping was used to calculate an optimism corrected c-index, analogous to the area under the receiver operating characteristic curve (Steyerberg, et al., 2011). A c-index of 0.5 denotes random predictions, whereas a c index of 1 denotes perfect predictions.
Higher expression miR320e is associated with poor outcome in patients with stage II and III CRC. To determine the potential prognostic significance of miR-320e expression, Cox regression models were utilized with the miRNA expression levels considered as continuous variables. There were 167 stage II and III CRC patients in the validation cohort with sufficient data for these analyses. All of these patients were treated with 5-FU-based adjuvant chemotherapy for 6 months subsequent to tumor resection. Of these patients, 65 out of 167 (38.9%) were stage II and the remainder were stage III. […]

O=c1[nH]cc(F)c(=O)[nH]1 [5-FU, 5-fluorouracil]
2-year Kaplan-Meier DFS estimate (2 years): 78.32%
2-year OS estimate (2 years): 91.57%
5-year Kaplan-Meier DFS estimate (5 years): 63.96%
5-year OS estimate (5 years): 78.52%
